Test results taken from patent US9315522B2, “Antibacterial compounds” (JANSSEN SCIENCES IRELAND UC, priority 2012, dated 2016).

Tests used:
[1] = tested on: S. aureus strain ATCC 29213; assay: In vivo efficacy, peritonitis model of S. aureus infection; details: female Swiss albino mice, IP infection, inoculum 8.9 log10, PO, QD, Sol 20% CD + 1HCl, 3 days post-infection
From the text: The concept of studying the in vivo effect of an antibacterial compound by treating intraperitoneally infected mice was introduced in 1911 for optochin against pneumococci (Morgenroth and Levy, 1911). The popularity of the model comes from the ease of its use with short-duration experiments, reproducible infections and simple end-points.
Methicillin-sensitive S. aureus strain ATCC 29213 was used to infect female Swiss albino mice. A Brain Heart Infusion (BHI) broth bacterial culture was inoculated the day before infection, incubated at 37° C. overnight and diluted in fresh BHI broth to the desired concentration. Intraperitoneal (i.p.) injection of ˜5×10^9 colony forming units (CFU) was performed in either of the lateral lower quadrants of the abdomen. After inoculation, mice were kept in their cages under daily observation for development of signs of infection or death. For the treatment of mice, the p.o. route was used and each mouse was treated individually by gavage. Example of Cpd No. 48 was formulated as a 20% HP-β-cyclodextrin and example of Cpd No. 38 was formulated as a water/Tween-20 suspension. The parameter used for monitoring the course of infection and the effect of treatment was death or survival of the animals over 3 days post-infection. As death could also be due to toxic side effects, a non-infected control group of 3 mice, treated with the highest dose of the compound tested, was included.

[2] = Cytotoxicity MTT assay (HELAM); type: cell-based, Human; details: human, HelaM cells, read-out: HELAM (222.125) CC50
In short: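 HelaM cells exposed 72 h at 37° C to serial dilutions, typically 25 to 0.8 μM, in 0.5% DMSO. MTT formazan dissolved in 2-propanol, absorbance at 540 nm minus 690 nm; CC50 is concentration halving viability.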

O=C1CNCc2cc(/C=C/C(=O)N3CC4C=C(c5nccs5)CC4C3)cnc2N1 (stereo not drawn) [compound 48]
% Survival ([1]; 1 mpk): 57% | % Survival ([1]; 5 mpk): 100% | CC50 at 72 h [2]: > 10.2 mg/L
